Key:
potassium arsenate = compound: O=[As]([O-])(O)O.[K+] [potassium arsenate]; assay: thermal stability z-score vs DMSO; higher = more thermally stabilized by treatment; settings: HeLa; arsenate concentration 1 mM
Experimental: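 Cellular thermal proteome profiling in HeLa cells treated with 1 mM arsenate for 1 h (DMSO pretreatment), heated to ten temperatures (37-66.3 °C). Soluble protein was quantified by TMT mass spectrometry relative to DMSO controls; the thermal stability score was transformed to a z-score; mean of n = 3 experiments.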

lipoamide = compound: NC(=O)CCCCC1CCSS1 [lipoamide]; assay: as above; settings: HeLa, lipoamide concentration 100 µM
Experimental: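 Cellular thermal proteome profiling in HeLa cells. Cells were treated with 100 µM lipoamide for 1 h, with or without 1 mM arsenate for a further 1 h, then heated to ten temperatures (37-66.3 °C), and soluble protein was quantified by TMT mass spectrometry relative to 0.1% DMSO controls. The thermal stability score (sum of log2 fold changes minus the abundance score) was transformed to a z-score; mean of n = 3 experiments.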

[1] = arsenate co-treatment: 1 mM arsenate 1 h
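Note: each temperature applied for 3 min, abundance score taken as mean log2 fold change at the two lowest temperatures, z-score obtained by mean subtraction and division by SD.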

Chain of UniProt O75592 (O75592 whole entry): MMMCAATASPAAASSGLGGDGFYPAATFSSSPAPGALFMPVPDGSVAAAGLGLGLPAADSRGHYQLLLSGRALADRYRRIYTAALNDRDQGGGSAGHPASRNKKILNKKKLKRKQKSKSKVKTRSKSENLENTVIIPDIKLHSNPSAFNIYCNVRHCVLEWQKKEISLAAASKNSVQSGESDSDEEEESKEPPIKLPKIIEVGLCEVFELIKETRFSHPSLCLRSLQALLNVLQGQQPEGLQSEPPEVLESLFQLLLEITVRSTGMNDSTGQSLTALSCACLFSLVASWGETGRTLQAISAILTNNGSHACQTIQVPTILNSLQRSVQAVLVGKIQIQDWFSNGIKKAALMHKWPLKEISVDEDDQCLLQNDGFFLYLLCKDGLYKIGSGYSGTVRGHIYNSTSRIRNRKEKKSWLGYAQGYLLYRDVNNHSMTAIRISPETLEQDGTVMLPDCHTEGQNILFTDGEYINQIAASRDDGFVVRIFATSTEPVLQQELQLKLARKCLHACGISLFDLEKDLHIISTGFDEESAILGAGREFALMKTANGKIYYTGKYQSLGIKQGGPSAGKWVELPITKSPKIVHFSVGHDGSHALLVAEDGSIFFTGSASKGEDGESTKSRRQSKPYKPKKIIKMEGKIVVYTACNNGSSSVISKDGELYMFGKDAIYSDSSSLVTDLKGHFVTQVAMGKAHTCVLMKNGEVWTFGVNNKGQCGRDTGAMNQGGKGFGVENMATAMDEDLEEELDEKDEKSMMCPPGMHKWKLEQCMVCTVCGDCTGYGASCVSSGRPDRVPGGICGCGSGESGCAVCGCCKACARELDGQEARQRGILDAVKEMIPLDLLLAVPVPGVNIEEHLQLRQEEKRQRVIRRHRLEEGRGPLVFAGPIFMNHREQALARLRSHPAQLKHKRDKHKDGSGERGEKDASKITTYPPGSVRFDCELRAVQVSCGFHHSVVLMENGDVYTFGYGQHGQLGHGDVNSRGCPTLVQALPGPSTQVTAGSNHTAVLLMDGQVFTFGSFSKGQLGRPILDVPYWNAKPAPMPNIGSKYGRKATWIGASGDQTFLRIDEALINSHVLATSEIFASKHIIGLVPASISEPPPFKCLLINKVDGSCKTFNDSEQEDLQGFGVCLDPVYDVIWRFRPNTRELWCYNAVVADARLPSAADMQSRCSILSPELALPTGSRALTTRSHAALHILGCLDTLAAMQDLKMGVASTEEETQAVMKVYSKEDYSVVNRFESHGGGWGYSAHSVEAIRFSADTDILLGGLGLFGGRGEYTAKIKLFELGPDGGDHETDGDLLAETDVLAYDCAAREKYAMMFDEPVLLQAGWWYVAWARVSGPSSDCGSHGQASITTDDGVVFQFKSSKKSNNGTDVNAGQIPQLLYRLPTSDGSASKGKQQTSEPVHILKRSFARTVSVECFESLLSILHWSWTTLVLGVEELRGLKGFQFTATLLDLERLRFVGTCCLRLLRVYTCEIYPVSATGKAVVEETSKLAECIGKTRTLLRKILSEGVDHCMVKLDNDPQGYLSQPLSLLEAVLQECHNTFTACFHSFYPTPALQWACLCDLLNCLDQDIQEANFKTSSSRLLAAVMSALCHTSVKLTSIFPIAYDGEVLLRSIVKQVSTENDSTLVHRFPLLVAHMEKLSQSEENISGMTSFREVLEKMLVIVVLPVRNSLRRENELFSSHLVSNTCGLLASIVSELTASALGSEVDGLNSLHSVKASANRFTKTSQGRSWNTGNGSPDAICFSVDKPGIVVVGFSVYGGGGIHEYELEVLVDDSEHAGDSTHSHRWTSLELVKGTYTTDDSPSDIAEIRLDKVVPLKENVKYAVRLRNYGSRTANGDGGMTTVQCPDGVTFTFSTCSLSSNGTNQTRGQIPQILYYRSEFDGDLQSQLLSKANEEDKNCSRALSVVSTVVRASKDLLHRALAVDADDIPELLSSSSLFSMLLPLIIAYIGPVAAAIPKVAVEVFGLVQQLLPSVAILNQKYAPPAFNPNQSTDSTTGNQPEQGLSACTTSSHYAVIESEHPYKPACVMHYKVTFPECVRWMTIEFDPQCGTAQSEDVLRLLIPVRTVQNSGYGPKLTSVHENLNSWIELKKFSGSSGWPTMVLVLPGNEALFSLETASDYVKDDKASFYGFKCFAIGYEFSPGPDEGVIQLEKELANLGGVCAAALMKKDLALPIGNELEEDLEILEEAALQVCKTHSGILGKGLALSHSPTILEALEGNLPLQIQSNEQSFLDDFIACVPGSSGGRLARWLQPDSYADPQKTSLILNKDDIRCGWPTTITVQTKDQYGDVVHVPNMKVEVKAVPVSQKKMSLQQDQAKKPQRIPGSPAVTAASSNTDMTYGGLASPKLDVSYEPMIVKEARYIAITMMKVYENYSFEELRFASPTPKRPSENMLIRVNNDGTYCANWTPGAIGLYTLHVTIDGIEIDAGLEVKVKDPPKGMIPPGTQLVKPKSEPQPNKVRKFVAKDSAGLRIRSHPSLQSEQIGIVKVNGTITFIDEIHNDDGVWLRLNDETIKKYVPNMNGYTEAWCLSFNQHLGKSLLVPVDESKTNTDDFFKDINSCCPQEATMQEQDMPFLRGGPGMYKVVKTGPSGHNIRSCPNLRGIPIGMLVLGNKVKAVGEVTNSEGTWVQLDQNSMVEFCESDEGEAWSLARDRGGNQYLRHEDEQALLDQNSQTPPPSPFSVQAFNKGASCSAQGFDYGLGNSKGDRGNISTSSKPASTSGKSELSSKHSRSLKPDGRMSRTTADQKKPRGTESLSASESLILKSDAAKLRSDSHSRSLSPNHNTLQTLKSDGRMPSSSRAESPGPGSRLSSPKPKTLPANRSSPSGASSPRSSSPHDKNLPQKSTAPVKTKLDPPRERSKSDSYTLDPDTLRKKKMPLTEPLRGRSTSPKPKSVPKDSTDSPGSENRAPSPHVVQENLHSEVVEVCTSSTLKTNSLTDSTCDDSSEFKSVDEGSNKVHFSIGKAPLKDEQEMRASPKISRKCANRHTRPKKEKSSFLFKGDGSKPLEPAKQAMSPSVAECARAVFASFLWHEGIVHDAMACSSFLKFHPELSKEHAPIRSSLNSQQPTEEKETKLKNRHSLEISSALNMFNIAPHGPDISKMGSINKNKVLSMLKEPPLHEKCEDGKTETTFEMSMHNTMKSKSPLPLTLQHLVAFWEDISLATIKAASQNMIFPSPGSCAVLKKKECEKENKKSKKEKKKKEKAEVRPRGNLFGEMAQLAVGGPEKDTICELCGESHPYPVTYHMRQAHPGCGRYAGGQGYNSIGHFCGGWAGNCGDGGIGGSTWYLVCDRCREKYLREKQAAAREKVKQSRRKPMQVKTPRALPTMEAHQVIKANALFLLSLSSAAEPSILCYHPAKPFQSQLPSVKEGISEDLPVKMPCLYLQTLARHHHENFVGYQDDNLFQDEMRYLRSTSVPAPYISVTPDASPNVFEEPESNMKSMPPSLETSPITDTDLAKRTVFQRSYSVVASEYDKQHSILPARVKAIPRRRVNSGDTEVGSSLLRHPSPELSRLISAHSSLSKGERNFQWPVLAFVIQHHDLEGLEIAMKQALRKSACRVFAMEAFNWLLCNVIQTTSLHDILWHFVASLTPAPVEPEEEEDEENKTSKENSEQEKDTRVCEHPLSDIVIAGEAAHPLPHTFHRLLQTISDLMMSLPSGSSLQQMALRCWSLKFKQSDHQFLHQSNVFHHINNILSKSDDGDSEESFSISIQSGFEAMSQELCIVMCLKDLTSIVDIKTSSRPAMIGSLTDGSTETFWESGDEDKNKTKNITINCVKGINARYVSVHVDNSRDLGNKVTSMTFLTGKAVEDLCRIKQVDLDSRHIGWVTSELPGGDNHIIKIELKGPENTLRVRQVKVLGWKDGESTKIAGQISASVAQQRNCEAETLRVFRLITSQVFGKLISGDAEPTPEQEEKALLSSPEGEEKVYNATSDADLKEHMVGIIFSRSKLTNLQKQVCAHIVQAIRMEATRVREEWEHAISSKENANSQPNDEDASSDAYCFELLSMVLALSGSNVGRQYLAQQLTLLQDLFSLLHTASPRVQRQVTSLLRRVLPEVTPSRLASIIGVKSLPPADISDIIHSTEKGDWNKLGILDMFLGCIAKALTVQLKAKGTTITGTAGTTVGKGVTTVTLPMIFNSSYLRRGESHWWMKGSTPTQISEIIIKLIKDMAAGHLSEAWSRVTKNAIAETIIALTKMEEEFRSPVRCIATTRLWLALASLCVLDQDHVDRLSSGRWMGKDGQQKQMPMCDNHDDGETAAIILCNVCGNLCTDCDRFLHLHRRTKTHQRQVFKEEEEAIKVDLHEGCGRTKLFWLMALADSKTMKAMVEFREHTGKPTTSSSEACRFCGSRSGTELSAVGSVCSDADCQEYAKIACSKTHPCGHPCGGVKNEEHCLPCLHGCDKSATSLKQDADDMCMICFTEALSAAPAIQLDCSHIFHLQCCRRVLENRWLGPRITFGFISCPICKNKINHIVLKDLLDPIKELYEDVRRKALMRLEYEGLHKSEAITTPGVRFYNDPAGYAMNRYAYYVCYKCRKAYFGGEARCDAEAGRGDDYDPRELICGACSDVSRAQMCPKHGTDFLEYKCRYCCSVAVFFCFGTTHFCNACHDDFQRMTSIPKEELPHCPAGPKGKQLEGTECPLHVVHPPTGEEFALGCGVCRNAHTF
Chain of UniProt Q9GZZ1 (Q9GZZ1 whole entry): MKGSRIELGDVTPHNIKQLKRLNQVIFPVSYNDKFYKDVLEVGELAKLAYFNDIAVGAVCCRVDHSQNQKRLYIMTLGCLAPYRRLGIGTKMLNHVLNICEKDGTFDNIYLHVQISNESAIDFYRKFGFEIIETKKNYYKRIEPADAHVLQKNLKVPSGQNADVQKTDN
Chain of UniProt Q9BQ15 (Q9BQ15 whole entry): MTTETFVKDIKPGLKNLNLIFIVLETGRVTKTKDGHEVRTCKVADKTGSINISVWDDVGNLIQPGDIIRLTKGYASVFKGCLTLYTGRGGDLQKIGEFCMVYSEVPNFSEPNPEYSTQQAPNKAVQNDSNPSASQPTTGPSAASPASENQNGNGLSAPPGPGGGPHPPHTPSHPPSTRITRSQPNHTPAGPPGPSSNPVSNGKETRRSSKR

Target	thermal stability z-score (potassium arsenate)	thermal stability z-score (lipoamide; [1])	thermal stability z-score (lipoamide; arsenate co-treatment: none)
MTPAP (UniProt Q9NVV4)	-0.28	0.621	0.936
MTPN (UniProt P58546)	-0.432	0.382	0.145
MTR (UniProt Q99707)	0.289	-0.354	-0.00141
MTRF1L (UniProt Q9UGC7)	0.646	-1.57	-0.343
MTRR (UniProt Q9UBK8)	0.111	0.00117	-0.531
MTSS1L (UniProt Q765P7)	-0.228	0.179	0.0525
MTUS1 (UniProt Q9ULD2)	0.0626	-0.0967	0.692
MTX1 (UniProt Q13505)	0.421	-0.275	0.061
MTX2 (UniProt O75431)	0.0221	-0.388	-0.267
MTX3 (UniProt Q5HYI7)	-0.0757	0.929	0.179
MUL1 (UniProt Q969V5)	-2.82	-0.0704	-0.261
MUT (UniProt P22033)	-1.02	-0.252	-0.48
MVB12A (UniProt Q96EY5)	0.35	0.652	-0.0184
MVD (UniProt P53602)	-0.0067	0.0441	-0.0153
MVK (UniProt Q03426)	-0.675	-0.352	-0.323
MVP (UniProt Q14764)	1.08	0.484	0.37
MXRA7 (UniProt P84157)	-0.34	0.254	0.307
MYADM (UniProt Q96S97)	1.34	0.0599	0.353
MYBBP1A (UniProt Q9BQG0)	-1.35	1.21	0.675

Target	thermal stability z-score (potassium arsenate)	thermal stability z-score (lipoamide; [1])	thermal stability z-score (lipoamide; arsenate co-treatment: none)
MYCBP2 (UniProt O75592)	-0.207	-0.0354	0.179
MYDGF (UniProt Q969H8)	-0.0349	-1.32	-1.06
MYH9 (UniProt P35579)	0.2	0.442	0.363
MYH10 (UniProt P35580)	0.375	0.273	0.19
MYH14 (UniProt Q7Z406)	0.458	0.363	0.126
MYL6 (UniProt P60660)	-0.312	0.576	0.451
MYL6B (UniProt P14649)	-1.03	-0.283	0.233
MYL12A|MYL12B	-0.0176	0.352	0.436
MYO1B (UniProt O43795)	-2.1	0.967	0.54
MYO1C (UniProt O00159)	-1.94	1.12	0.329
MYO1E (UniProt Q12965)	-0.8	0.918	0.582
MYO5A (UniProt Q9Y4I1)	0.118	0.351	0.43
MYO5C (UniProt Q9NQX4)	0.0128	0.173	0.236
MYO6 (UniProt Q9UM54)	-0.115	0.203	0.26
MYO9B (UniProt Q13459)	-0.364	-0.266	-0.1
MYO10 (UniProt Q9HD67)	0.432	0.223	0.44
MYO18A	0.197	-0.283	0.122
MYO19 (UniProt Q96H55)	-0.139	0.0427	0.347
MYOF (UniProt Q9NZM1)	0.0213	-0.259	0.0805

Target	thermal stability z-score (potassium arsenate)	thermal stability z-score (lipoamide; [1])	thermal stability z-score (lipoamide; arsenate co-treatment: none)
MYPN (UniProt Q86TC9)	0.803	0.126	0.447
MZT2B (UniProt Q6NZ67)	0.0663	0.0548	0.181
N4BP1 (UniProt O75113)	-0.0968	0.103	0.0755
NAA10 (UniProt P41227)	0.405	1.16	0.982
NAA15 (UniProt Q9BXJ9)	0.812	0.838	0.593
NAA16 (UniProt Q6N069)	-0.173	0.378	0.394
NAA20 (UniProt P61599)	0.0823	0.753	0.153
NAA25 (UniProt Q14CX7)	-0.0259	0.177	0.0532
NAA30 (UniProt Q147X3)	-0.43	-0.282	0.317
NAA35 (UniProt Q5VZE5)	0.265	0.334	0.635
NAA38 (UniProt Q9BRA0)	-0.643	0.599	0.425
NAA40 (UniProt Q86UY6)	0.0387	-0.126	0.2
NAA50 (UniProt Q9GZZ1)	0.502	0.872	0.589
NAB2 (UniProt Q15742)	1.18	-0.402	-2.02
NABP2 (UniProt Q9BQ15)	-0.112	-0.423	-0.174
NACA	0.508	0.468	0.47
NACC1 (UniProt Q96RE7)	-0.423	-0.376	-0.495
NADK2 (UniProt Q4G0N4)	-0.584	0.539	0.491

Reference: the supplement of paper PMC12463676, “Small-molecule dissolution of stress granules by redox modulation benefits ALS models” (Nature Chemical Biology, 2025)
